Test results from patent publication US11098038B2, “Imidazole-based anticancer agents and derivatives thereof, and methods of making and using same” (The University of Toledo, priority 2017, dated 2021).

Key:
CCRF-CEM = test: NCI 60 screen, CCRF-CEM; assay type: cell-based; settings: Homo sapiens, Leukemia
Method: (§1) The compounds synthesized were tested at the National Cancer Institute (NCI) for anti-proliferative activity in the 60 human tumor cell line assay.

HL-60(TB) = test: NCI 60 screen, HL-60(TB); assay type: cell-based; settings: Homo sapiens, Leukemia
Method: as §1

K-562 = test: NCI 60 screen, K-562; assay type: cell-based; settings: Homo sapiens, K562, Leukemia
Method: as §1

MOLT-4 = test: NCI 60 screen, MOLT-4; assay type: cell-based; settings: Homo sapiens, Leukemia
Method: as §1

RPMI-8226 = test: NCI 60 screen, RPMI-8226; assay type: cell-based; settings: Homo sapiens, Leukemia
Method: as §1

SR = test: NCI 60 screen, SR; assay type: cell-based; settings: Homo sapiens, Leukemia
Method: as §1

A549/ATCC = test: NCI 60 screen, A549/ATCC; assay type: cell-based; settings: Homo sapiens, Non-Small Cell Lung
Method: as §1

EKVX = test: NCI 60 screen, EKVX; assay type: cell-based; settings: Homo sapiens, Non-Small Cell Lung
Method: as §1

HOP-62 = test: NCI 60 screen, HOP-62; assay type: cell-based; settings: Homo sapiens, Non-Small Cell Lung
Method: as §1

HOP-92 = test: NCI 60 screen, HOP-92; assay type: cell-based; settings: Homo sapiens, Non-Small Cell Lung
Method: as §1

NCI-H226 = test: NCI 60 screen, NCI-H226; assay type: cell-based; settings: Homo sapiens, Non-Small Cell Lung
Method: as §1

NCI-H23 = test: NCI 60 screen, NCI-H23; assay type: cell-based; settings: Homo sapiens, Non-Small Cell Lung
Method: as §1

NCI-322M = test: NCI 60 screen, NCI-322M; assay type: cell-based; settings: Homo sapiens, Non-Small Cell Lung
Method: as §1

NCI-460 = test: NCI 60 screen, NCI-460; assay type: cell-based; settings: Homo sapiens, Non-Small Cell Lung
Method: as §1

NCI-H522 = test: NCI 60 screen, NCI-H522; assay type: cell-based; settings: Homo sapiens, Non-Small Cell Lung
Method: as §1

COLO 205 = test: NCI 60 screen, COLO 205; assay type: cell-based; settings: Homo sapiens, Colon
Method: as §1

HCC-2998 = test: NCI 60 screen, HCC-2998; assay type: cell-based; settings: Homo sapiens, Colon
Method: as §1

HCT-116 = test: NCI 60 screen, HCT-116; assay type: cell-based; settings: Homo sapiens, Colon
Method: as §1

HCT15 = test: NCI 60 screen, HCT15; assay type: cell-based; settings: Homo sapiens, HCT-15, Colon
Method: as §1

HT29 = test: NCI 60 screen, HT29; assay type: cell-based; settings: Homo sapiens, HT-29, Colon
Method: as §1

KM12 = test: NCI 60 screen, KM12; assay type: cell-based; settings: Homo sapiens, Colon
Method: as §1

SW-620 = test: NCI 60 screen, SW-620; assay type: cell-based; settings: Homo sapiens, Colon
Method: as §1

SF-268 = test: NCI 60 screen, SF-268; assay type: cell-based; settings: Homo sapiens, CNS
Method: as §1

SF-295 = test: NCI 60 screen, SF-295; assay type: cell-based; settings: Homo sapiens, CNS
Method: as §1

SF-539 = test: NCI 60 screen, SF-539; assay type: cell-based; settings: Homo sapiens, CNS
Method: as §1

SNB-19 = test: NCI 60 screen, SNB-19; assay type: cell-based; settings: Homo sapiens, CNS
Method: as §1

SNB-75 = test: NCI 60 screen, SNB-75; assay type: cell-based; settings: Homo sapiens, CNS
Method: as §1

U251 = test: NCI 60 screen, U251; assay type: cell-based; settings: Homo sapiens, U-251, CNS
Method: as §1

LOX IMVI = test: NCI 60 screen, LOX IMVI; assay type: cell-based; settings: Homo sapiens, Melanoma
Method: as §1

MALME-3M = test: NCI 60 screen, MALME-3M; assay type: cell-based; settings: Homo sapiens, Melanoma
Method: as §1

M14 = test: NCI 60 screen, M14; assay type: cell-based; settings: Homo sapiens, Melanoma
Method: as §1

MDA-MB-435 = test: NCI 60 screen, MDA-MB-435; assay type: cell-based; settings: Homo sapiens, Melanoma
Method: as §1

SK-MEL-2 [1] = test: NCI 60 screen, SK-MEL-2 (first line); assay type: cell-based; settings: Homo sapiens; Melanoma, SK-MEL-2 (first of two lines so named, r37)
Method: as §1

SK-MEL-2 [2] = test: NCI 60 screen, SK-MEL-2 (second line); assay type: cell-based; settings: Homo sapiens; Melanoma, SK-MEL-2 (second of two lines so named, r38)
Method: as §1

SK-MEL-5 = test: NCI 60 screen, SK-MEL-5; assay type: cell-based; settings: Homo sapiens, Melanoma
Method: as §1

UACC-257 = test: NCI 60 screen, UACC-257; assay type: cell-based; settings: Homo sapiens, Melanoma
Method: as §1

UACC-62 = test: NCI 60 screen, UACC-62; assay type: cell-based; settings: Homo sapiens, Melanoma
Method: as §1

IGROV1 = test: NCI 60 screen, IGROV1; assay type: cell-based; settings: Homo sapiens, IGROV-1, Ovarian
Method: as §1

OVCAR-3 = test: NCI 60 screen, OVCAR-3; assay type: cell-based; settings: Homo sapiens, Ovarian
Method: as §1

OVCAR-4 = test: NCI 60 screen, OVCAR-4; assay type: cell-based; settings: Homo sapiens, Ovarian
Method: as §1

OVCAR-5 = test: NCI 60 screen, OVCAR-5; assay type: cell-based; settings: Homo sapiens, Ovarian
Method: as §1

OVCAR-8 = test: NCI 60 screen, OVCAR-8; assay type: cell-based; settings: Homo sapiens, Ovarian
Method: as §1

NCI/ADR-RES = test: NCI 60 screen, NCI/ADR-RES; assay type: cell-based; settings: Homo sapiens, Ovarian
Method: as §1

SK-OV-3 = test: NCI 60 screen, SK-OV-3; assay type: cell-based; settings: Homo sapiens, Ovarian
Method: as §1

786-0 = test: NCI 60 screen, 786-0; assay type: cell-based; settings: Homo sapiens, Renal
Method: as §1

A498 = test: NCI 60 screen, A498; assay type: cell-based; settings: Homo sapiens, Renal
Method: as §1

ACHN = test: NCI 60 screen, ACHN; assay type: cell-based; settings: Homo sapiens, Renal
Method: as §1

CAKI-1 = test: NCI 60 screen, CAKI-1; assay type: cell-based; settings: Homo sapiens, Renal
Method: as §1

RXF393 = test: NCI 60 screen, RXF393; assay type: cell-based; settings: Homo sapiens, RXF 393, Renal
Method: as §1

SN12C = test: NCI 60 screen, SN12C; assay type: cell-based; settings: Homo sapiens, Renal
Method: as §1

TK-10 = test: NCI 60 screen, TK-10; assay type: cell-based; settings: Homo sapiens, Renal
Method: as §1

UO-31 = test: NCI 60 screen, UO-31; assay type: cell-based; settings: Homo sapiens, Renal
Method: as §1

PC-3 = test: NCI 60 screen, PC-3; assay type: cell-based; settings: Homo sapiens, Prostatic
Method: as §1

DU-145 = test: NCI 60 screen, DU-145; assay type: cell-based; settings: Homo sapiens, Prostatic
Method: as §1

MCF7 = test: NCI 60 screen, MCF7; assay type: cell-based; settings: Homo sapiens, Breast
Method: as §1

MDA-MB-231/ATCC = test: NCI 60 screen, MDA-MB-231/ATCC; assay type: cell-based; settings: Homo sapiens, Breast
Method: as §1

HS 578T = test: NCI 60 screen, HS 578T; assay type: cell-based; settings: Homo sapiens, Breast
Method: as §1

BT-549 = test: NCI 60 screen, BT-549; assay type: cell-based; settings: Homo sapiens, Breast
Method: as §1

T-47D = test: NCI 60 screen, T-47D; assay type: cell-based; settings: Homo sapiens, T47D, Breast
Method: as §1

MDA-MB-468 = test: NCI 60 screen, MDA-MB-468; assay type: cell-based; settings: Homo sapiens, Breast
Method: as §1

## O=C(Cc1ccc(/C=C/C(=O)c2ncc[nH]2)cc1)Nc1ccc(C(F)(F)F)cc1 [Compound 24, (E)-2-(4-(3-(1H-imidazole-2-yl)-3-oxoprop-1-en-1-yl)phenyl)-N-(4-(trifluoromethyl)phenyl) acetamide]
CCRF-CEM
  GI50: 1.55 µM
HL-60(TB)
  GI50: 2.03 µM
K-562
  GI50: 1.24 µM
MOLT-4
  GI50: 2.29 µM
RPMI-8226
  GI50: 0.78 µM
SR
  GI50: 0.843 µM
A549/ATCC
  GI50: 6.37 µM
EKVX
  GI50: 5.57 µM
HOP-62
  GI50: 4.8 µM
HOP-92
  GI50: 4.89 µM
NCI-H226
  GI50: 6.11 µM
NCI-H23
  GI50: 3.42 µM
NCI-322M
  GI50: 4.68 µM
NCI-460
  GI50: 3.6 µM
NCI-H522
  GI50: 4.87 µM
COLO 205
  GI50: 5.38 µM
HCC-2998
  GI50: 3.97 µM
HCT-116
  GI50: 0.694 µM
HCT15
  GI50: 1.04 µM
HT29
  GI50: 1.09 µM
KM12
  GI50: 1.11 µM
SW-620
  GI50: 1.35 µM
SF-268
  GI50: 3.05 µM
SF-295
  GI50: 4.08 µM
SF-539
  GI50: 4.52 µM
SNB-19
  GI50: 2.79 µM
SNB-75
  GI50: 3.97 µM
U251
  GI50: 1.22 µM
LOX IMVI
  GI50: 0.469 µM
MALME-3M
  GI50: 5.18 µM
M14
  GI50: 2.58 µM
MDA-MB-435
  GI50: 2.87 µM
SK-MEL-2 [1]
  GI50: 7.09 µM
SK-MEL-2 [2]
  GI50: 5.32 µM
SK-MEL-5
  GI50: 5.55 µM
UACC-257
  GI50: 7.2 µM
UACC-62
  GI50: 4.47 µM
IGROV1
  GI50: 3.84 µM
OVCAR-3
  GI50: 1.09 µM
OVCAR-4
  GI50: 5.12 µM
OVCAR-5
  GI50: 4.89 µM
OVCAR-8
  GI50: 7.99 µM
NCI/ADR-RES
  GI50: 8.96 µM
SK-OV-3
  GI50: 7.66 µM
786-0
  GI50: 1.4 µM
A498
  GI50: 4.73 µM
ACHN
  GI50: 6.33 µM
CAKI-1
  GI50: 4.43 µM
RXF393
  GI50: 3.75 µM
SN12C
  GI50: 1.87 µM
TK-10
  GI50: 6.63 µM
UO-31
  GI50: 2.43 µM
PC-3
  GI50: 2.81 µM
DU-145
  GI50: 2.13 µM
MCF7
  GI50: 0.851 µM
MDA-MB-231/ATCC
  GI50: 2.79 µM
HS 578T
  GI50: 5.88 µM
BT-549
  GI50: 2.11 µM
T-47D
  GI50: 3.97 µM
MDA-MB-468
  GI50: 1.77 µM
other
  melting point: 240.5 °C
